Laboratory results: patent publication US12453722B2, “Maleate of nicotinyl alcohol ether derivative, crystal form thereof, and application thereof” (INSTITUTE OF MATERIA MEDICA, CHINESE ACADEMY OF MEDICAL …, priority 2019, dated 2025)
Values joined by “and” are separate entries in the source; they are usually repeats but may differ in a detail not shown here. Equal entries are not always repeated. Marks after values point to notes of the source that are not given here.

What was measured:
[1] = log P (physical and chemical properties); type: physicochemical
[2] = Influencing factor test (stability at high temperature, high humidity, illumination); type: physicochemical
Description: When the temperature rose to the top of DSC endothermic peak (about 175° C.), the weight loss was obvious, which was the weight loss caused by the melting decomposition of the sample. The DSC endothermic peak was the decomposition point of the compound of Example 2. 4.
• (1) Physical and chemical properties • Appearance: white solid • Melting point: 174.68° C.
The compound of Example 2 was stable under the conditions of illumination, high temperature and high humidity.

[3] = tested on: mouse melanoma B16F10; assay: In vivo antitumor effect, subcutaneous transplanted tumor model of mouse melanoma B16F10; conditions: for TGI %: B16F10, TGI=(1-T/C)×100 by tumor weight
Description: The in vivo antitumor effects of the compound of Example 1 and the compound of Example 2 as PD-L1 inhibitors on mouse melanoma B16F10 were evaluated on the subcutaneous transplanted tumor model of mice.
(§1) Experimental steps: the subcultured B16F10 tumor strain was ground with a homogenizer, washed twice with sterile normal saline and counted, and the cell concentration of tumor cell suspension was adjusted with normal saline to 9×10^6/ml. 0.2 ml of the cell suspension was inoculated into the right armpit of C57BL/6J mice and the day was recorded as day 0. The next day after inoculation, the animals were randomly divided into groups, weighed and administered. The mice in the solvent control group were administrated with 0.5% CMC orally every day. […] The compounds to be tested were administered orally once a day. The animals were weighed and killed during treatment. The tumor tissues were stripped, weighed and photographed. Finally, the tumor inhibition rates were calculated to evaluate the intensity of antitumor effect.
Calculation and statistical method: tumor proliferation inhibition rate TGI (%): TGI=(1-T/C)×100. (T: tumor weight in the treatment group; C: tumor weight in the negative control group). Statistical method: Graphpad was used for data statistical analysis, and One-way ANOVA test was used, * P<0.05, * * P<0.01, * * * P<0.001.

[4] = tested on: mouse colon cancer MC38; assay: In vivo antitumor effect, subcutaneous transplanted tumor model of mouse colon cancer MC38; conditions: for Tumor weight (g) X ± SD / Body weight (g) X ± SD, End / Body weight (g) X ± SD, Start: MC38, C57BL/6J mice; for TGI %: MC38, TGI=(1-T/C)×100 by tumor weight
Description: The in vivo antitumor effects of the compound of Example 1 and the compound of Example 2 as PD-L1 inhibitors on mouse colon cancer MC38 were evaluated on the subcutaneous transplanted tumor model of mice.
as §1, with “MC38” for “B16F10”, “9×10^6/ml,” for “9×10^6/ml.”
(§2) Calculation and statistical method: tumor proliferation inhibition rate TGI (%): TGI=(1-T/C)×100. (T: tumor weight in the treatment group: C: tumor weight in the negative control group). Statistical method: Graphpad was used for data statistical analysis, and One-way ANOVA test was used, * P<0.05, * * P<0.01, * * * P<0.001.

[5] = tested on: human lung cancer NCI-H460; assay: In vivo antitumor effect, human lung cancer NCI-H460 model in NSG mice reconstructed by human immune system; conditions: for Tumor volume X ± SD, Day 1 / Tumor volume X ± SD, Day 20 / Tumor weight (g) X ± SD: NCI-H460, NSG mice with human PBMCs; for TGI %: NCI-H460, TGI=(1-T/C)×100 by tumor weight
Description: The in vivo antitumor effects of the compound of Example 1 and the compound of Example 2 as PD-L1 inhibitors were evaluated on the NCI-H460 model of human lung cancer in NSG tumor-bearing mice reconstructed by human immune system. […]
Experimental steps: PBMCs were obtained by isolation of fresh human leukocytes, then inoculated into NSG mice through caudal vein, and each mouse was inoculated with 1×10^7. On the third day. NCI-H460 tumor cells were inoculated into the armpit of mice, and each mouse was inoculated with 1×10^6. After the tumors grew to 100˜300 mm^3, the mice were administered in groups. The mice in the solvent control group were administrated with 0.5% CMC orally every day. […] The compounds to be tested were administered orally once a day. The animals were weighed and killed during treatment. The tumor tissues were stripped, weighed and photographed. Finally, the tumor inhibition rates were calculated to evaluate the intensity of antitumor effect.
as §2

[6] = tested on: pleural mesothelioma (PM); conditions: 25 patients with pleural mesothelioma (PM); cited from earlier work
[7] = 5 × 14 mg/kg, oral once a day, B16F10, C57BL/6J mice
[8] = 10 × 14 mg/kg, oral once a day, B16F10, C57BL/6J mice
[9] = 2.5 × 14 mg/kg, oral once a day
[10] = 80 × 1 mg/kg, intraperitoneal, B16F10, C57BL/6J mice, 1 mg/kg

CC(C)OC(=O)[C@H](CO)NCc1cc(Cl)c(OCc2cccc(-c3ccccc3)c2Br)cc1OCc1cccnc1.O=C(O)/C=C\C(=O)O [Example 2, isopropyl (S)-N-(2-(pyridine-3-yl-methoxy)-4-(2-bromo-3-phenylbenzyloxy)-5-chlorobenzyl) serinate maleate]
log P [1]: 3.2
Appearance ([2]; 60° C., 10 days): white
Chiral impurities (%) ([2]; 60° C., 10 days): 0.2%
Melting point (DSC method, ° C.) ([2]; 60° C., 10 days): 174.64 °C
Purity (%) ([2]; 60° C., 10 days): 98.7%
Related substances (%) ([2]; 60° C., 10 days): 1.3%
Appearance ([2]; Illumination, 10 days): white
Chiral impurities (%) ([2]; Illumination, 10 days): 0.2%
Melting point (DSC method, ° C.) ([2]; Illumination, 10 days): 174.60 °C
Purity (%) ([2]; Illumination, 10 days): 98.6%
Related substances (%) ([2]; Illumination, 10 days): 1.4%
Appearance ([2]; Initial): white
Chiral impurities (%) ([2]; Initial): 0.2%
Melting point (DSC method, ° C.) ([2]; Initial): 174.68 °C
Purity (%) ([2]; Initial): 98.7%
Related substances (%) ([2]; Initial): 1.3%
Appearance ([2]; RH 92.5%, 10 days): white
Chiral impurities (%) ([2]; RH 92.5%, 10 days): 0.2%
Melting point (DSC method, ° C.) ([2]; RH 92.5%, 10 days): 174.57 °C
Purity (%) ([2]; RH 92.5%, 10 days): 98.7%
Related substances (%) ([2]; RH 92.5%, 10 days): 1.3%
Stability under illumination, high temperature and high humidity ([2]; illumination, 60° C., RH 92.5%, 10 days): stable
Tumor weight (g) X ± SD [3, 7]: 1.39 ± 0.84* g
TGI % ([3]; 5 × 14 mg/kg, oral once a day): 40%
Tumor weight (g) X ± SD [3, 8]: 1.04 ± 0.66** g
TGI % ([3]; 10 × 14 mg/kg, oral once a day): 55%
Comparison of tumor inhibition rate at the same dosage ([3]; Tumor model B16F10): Compound of the Example 2 (maleate) > Compound
Tumor weight (g) X ± SD [4, 9]: 1.13 ± 0.78 g
TGI % [4, 9]: 34%
Tumor weight (g) X ± SD ([4]; 5 × 14 mg/kg, oral once a day): 0.42 ± 0.39*** g
TGI % ([4]; 5 × 14 mg/kg, oral once a day): 75%
Tumor weight (g) X ± SD ([4]; 10 × 14 mg/kg, oral once a day): 0.73 ± 0.54** g
TGI % ([4]; 10 × 14 mg/kg, oral once a day): 57%
Comparison of tumor inhibition rate at the same dosage ([4]; Tumor model MC38): Compound of the Example 2 (maleate) > Compound
Tumor volume X ± SD, Day 1 ([5]; 15 × 14 mg/kg, oral once a day): 166.5 ± 24.5
Tumor volume X ± SD, Day 20 ([5]; 15 × 14 mg/kg, oral once a day): 1405.2 ± 442.9
TGI % ([5]; 15 × 14 mg/kg, oral once a day): 30.6%
Comparison of tumor inhibition rate at the same dosage ([5]; Tumor model NSG NCI-H460): Compound of the Example 2 (maleate) > Compound

O=P1(N(CCCl)CCCl)NCCCO1 (stereo not drawn) [CTX, cyclophosphamide]
Body weight (g) X ± SD, End [3, 10]: 19.2 ± 0.8 g and 17.5 ± 0.9 g
Body weight (g) X ± SD, Start [3, 10]: 16.94 ± 0.43 g and 16.9 ± 0.8 g
TGI % ([3]; 80 × 1 mg/kg, intraperitoneal, 1 mg/kg): 90% and 70%
Body weight (g) X ± SD, End ([4]; 40 × 1 mg/kg, intraperitoneal): 21.7 ± 1.4 g
Body weight (g) X ± SD, Start ([4]; 40 × 1 mg/kg, intraperitoneal): 18.8 ± 0.9 g
Tumor weight (g) X ± SD ([4]; 40 × 1 mg/kg, intraperitoneal): 1.30 ± 1.44** g
TGI % ([4]; 40 × 1 mg/kg, intraperitoneal): 67%
Body weight (g) X ± SD, End ([4]; 40 × 2 mg/kg, intraperitoneal): 24.5 ± 0.9 g
Body weight (g) X ± SD, Start ([4]; 40 × 2 mg/kg, intraperitoneal): 22.0 ± 0.8 g
Tumor weight (g) X ± SD ([4]; 40 × 2 mg/kg, intraperitoneal): 0.17 ± 0.10** g
TGI % ([4]; 40 × 2 mg/kg, intraperitoneal): 90%
Tumor volume X ± SD, Day 1 ([5]; 100 × 1 mg/kg, intraperitoneal): 165.4 ± 22.4
Tumor volume X ± SD, Day 20 ([5]; 100 × 1 mg/kg, intraperitoneal): 556.5 ± 81.1
Tumor weight (g) X ± SD ([5]; 100 × 1 mg/kg, intraperitoneal): 0.90 ± 0.15*** g
TGI % ([5]; 100 × 1 mg/kg, intraperitoneal): 66.9%

Keytruda: first FDA approved PD-1 monoclonal antibody, from Merck
disease control rate [6]: 76%
overall response rate (ORR) [6]: 28%

CC(C)OC(=O)[C@H](CO)NCc1cc(Cl)c(OCc2cccc(-c3ccccc3)c2Br)cc1OCc1cccnc1.Cl.Cl [Example 1, isopropyl (S)-N-[2-(pyridine-3-yl-methoxy)-4-(2-bromo-3-(phenyl)benzyloxy)-5-chlorobenzyl] serinate hydrochloride]
logP [1]: 2.4
Appearance ([2]; 60° C., 5 days): off white powder
Melting point (DSC method, ° C.) ([2]; 60° C., 5 days): 118.69 °C
Purity (%) ([2]; 60° C., 5 days): 99.5%
Related substances (%) ([2]; 60° C., 5 days): 0.5%
Appearance ([2]; Illumination, 5 days): transparent bulk
Purity (%) ([2]; Illumination, 5 days): 96.0%
Related substances (%) ([2]; Illumination, 5 days): 4.0%
Stability under illumination conditions ([2]; Illumination, 5 days): unstable
Appearance ([2]; Initial): off white powder
Melting point (DSC method, ° C.) ([2]; Initial): 119.36 °C
Purity (%) ([2]; Initial): 99.5%
Related substances (%) ([2]; Initial): 0.5%
Purity (%) ([2]; RH 92.5%, 5 days): 99.5%
Appearance ([2]; RH 92.5%, 5 days, hydrochloride): colorless viscous liquid
Moisture absorption ([2]; high humidity of RH92.5%, 5 days): serious moisture absorption
Stability under high temperature conditions ([2]; high temperature of 60° C., 5 days): stable
Tumor weight (g) X ± SD [3, 7]: 3.11 ± 0.98* g
TGI % ([3]; 5 × 14 mg/kg, oral once a day): 11%
Tumor weight (g) X ± SD [3, 8]: 3.04 ± 0.94** g
TGI % ([3]; 10 × 14 mg/kg, oral once a day): 13%
Tumor weight (g) X ± SD ([4]; 5 × 14 mg/kg, oral once a day): 3.21 ± 0.28*** g
TGI % ([4]; 5 × 14 mg/kg, oral once a day): 18%
Tumor weight (g) X ± SD ([4]; 10 × 14 mg/kg, oral once a day): 2.86 ± 1.36** g
TGI % ([4]; 10 × 14 mg/kg, oral once a day): 27%
Tumor volume X ± SD, Day 1 ([5]; 15 × 14 mg/kg, oral once a day): 161.9 ± 21.0
Tumor volume X ± SD, Day 20 ([5]; 15 × 14 mg/kg, oral once a day): 1441.4 ± 337.6
Tumor weight (g) X ± SD ([5]; 15 × 14 mg/kg, oral once a day): 2.06 ± 0.22 g
TGI % ([5]; 15 × 14 mg/kg, oral once a day): 24.7%
